Assay results taken from patent publication US20230265151A1, “GIP/GLP1 CO-AGONIST COMPOUNDS” (priority 2020, published 2023).
Read-outs that look alike come from different tables or passages of the source.

Columns and labels:
Format in all cases: cell-based
hGCGR = molecular target: T1, hGCGR (Homo sapiens, UniProt P47871); test: Functional cAMP formation (HTRF) in HEK-293 clonal cells expressing hGCGR, 0.1% bovine casein, without or with 1.0% human serum albumin
T1 construct: expressed in transfected cells
How it was run: (§1)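 Readings of the HTRF 665/620 nm ratio, which falls as cAMP rises, were converted to nM cAMP using a standard curve after 30 min peptide exposure at 37° C.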

hGLP-1R = hGLP-1R (Homo sapiens, UniProt P43220); test: Functional cAMP formation (HTRF) in HEK-293 clonal cells expressing hGLP-1R, 0.1% bovine casein, without or with 1.0% human serum albumin; design: expressed in transfected cells; details: for Emax: 37° C., read-out: hGLP-1R Emax, % ± SEM; for EC50: cAMP, incubated at 37° C., 0.1% bovine casein (no human serum albumin), geometric mean
Procedure: After a 30-min incubation at 37° C., the resulting increase in intracellular cAMP is quantitatively determined using a CisBio cAMP Dynamic 2 HTRF Assay Kit (62AM4PEJ). Briefly, cAMP levels within the cell are detected by adding the cAMP-d2 conjugate in cell lysis buffer (10 µL) followed by the antibody anti-cAMP-Eu^3+-Cryptate, also in cell lysis buffer (10 µL). The resulting competitive assay is incubated for at least 60 min at room temperature, and then is detected using a PerkinElmer Envision® instrument with excitation at 320 nm and emission at 665 nm and 620 nm. Envision units (emission at 665 nm/620 nm* 10,000) are inversely proportional to the amount of cAMP present and are converted to nM cAMP per well us-ing a cAMP standard curve. […] A relative EC50 value and percent top (Emax) are derived by non-linear regression analysis using the percent maximal response vs. the concentration of peptide added, fitted to a four-parameter logistic equation.

hGIPR = molecular target: T2, hGIPR (Homo sapiens, UniProt P48546); test: Functional cAMP formation (HTRF) in HEK-293 clonal cells expressing hGIPR, 0.1% bovine casein, without or with 1.0% human serum albumin; details: for Emax: percent of maximal response to GIP(1-42)NH2; for EC50: hGIPR EC50, nM (SEM, n), 37° C., geometric mean
T2 construct: expressed in transfected cells
T2 sequence (P48546 22-466): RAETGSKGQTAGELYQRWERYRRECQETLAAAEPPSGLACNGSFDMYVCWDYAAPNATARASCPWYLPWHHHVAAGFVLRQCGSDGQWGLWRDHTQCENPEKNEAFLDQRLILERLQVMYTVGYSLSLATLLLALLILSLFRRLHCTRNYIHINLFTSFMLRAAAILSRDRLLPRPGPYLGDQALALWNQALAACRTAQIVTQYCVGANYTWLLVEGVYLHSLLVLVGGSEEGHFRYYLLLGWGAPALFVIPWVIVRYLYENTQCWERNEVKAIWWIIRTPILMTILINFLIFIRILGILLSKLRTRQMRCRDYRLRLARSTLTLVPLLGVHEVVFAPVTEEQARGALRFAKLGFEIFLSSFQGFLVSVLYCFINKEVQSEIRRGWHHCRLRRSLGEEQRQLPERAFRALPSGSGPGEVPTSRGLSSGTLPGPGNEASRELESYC
How it was run: as §1

[1] = cAMP, incubated at 37° C., 0.1% bovine casein (no human serum albumin), geometric mean, read-out: hGCGR EC50, nM (SEM, n)
[2] = read-out: hGLP-1R EC50, nM (SEM, n)
[3] = hGCGR EC50, nM (SEM, n), cAMP, 37° C., 0.1% bovine casein (no human serum albumin), geometric mean

T1 sequence (P47871 26-477): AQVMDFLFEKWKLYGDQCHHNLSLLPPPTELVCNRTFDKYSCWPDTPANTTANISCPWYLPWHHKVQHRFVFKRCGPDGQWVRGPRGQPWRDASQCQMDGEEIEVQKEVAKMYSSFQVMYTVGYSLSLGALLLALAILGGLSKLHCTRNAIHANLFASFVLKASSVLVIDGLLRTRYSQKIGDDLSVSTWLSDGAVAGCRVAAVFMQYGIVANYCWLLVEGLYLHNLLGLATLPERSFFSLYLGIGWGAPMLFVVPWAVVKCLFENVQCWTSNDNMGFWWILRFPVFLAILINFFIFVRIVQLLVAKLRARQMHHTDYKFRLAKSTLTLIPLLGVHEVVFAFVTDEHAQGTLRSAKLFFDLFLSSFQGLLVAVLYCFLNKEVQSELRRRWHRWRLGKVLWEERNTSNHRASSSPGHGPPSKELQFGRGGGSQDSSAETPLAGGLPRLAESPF
Sequence of hGLP-1R (P43220 24-463): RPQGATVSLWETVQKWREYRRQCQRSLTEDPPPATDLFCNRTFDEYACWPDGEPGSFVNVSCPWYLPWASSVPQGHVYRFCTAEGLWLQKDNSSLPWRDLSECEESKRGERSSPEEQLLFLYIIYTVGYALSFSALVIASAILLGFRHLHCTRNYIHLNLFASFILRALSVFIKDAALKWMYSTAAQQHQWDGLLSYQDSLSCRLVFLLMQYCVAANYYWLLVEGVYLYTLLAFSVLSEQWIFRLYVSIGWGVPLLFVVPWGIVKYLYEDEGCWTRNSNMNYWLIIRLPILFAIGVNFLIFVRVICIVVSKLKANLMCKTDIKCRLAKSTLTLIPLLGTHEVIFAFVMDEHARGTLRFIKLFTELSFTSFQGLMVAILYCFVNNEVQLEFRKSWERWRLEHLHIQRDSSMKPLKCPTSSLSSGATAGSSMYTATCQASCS

Structure (SMILES): CC[C@H](C)[C@H](NC(=O)[C@H](CC(C)C)NC(=O)[C@](C)(Cc1ccc(O)cc1)NC(=O)[C@@H](CCC(=O)O)NC(=O)[C@@H](NC(=O)[C@H](Cc1ccccc1)NC(=O)[C@H](CCC(=O)O)NC(=O)C(C)(C)NC(=O)[C@H](CCC(N)=O)NC(=O)[C@H](C)NC(=O)[C@H](CCCCNC(=O)COCCOCCNC(=O)COCCOCCNC(=O)CC[C@H](NC(=O)CCCCCCCCCCCCC(=O)O)C(=O)O)NC(=O)[C@H](CCCN)NC(=O)[C@H](CC(=O)O)NC(=O)[C@H](CC(C)C)NC(=O)[C@](C)(CC(C)C)NC(=O)[C@@H](NC(=O)[C@H](CO)NC(=O)C1(NC(=O)[C@H](CC(=O)O)NC(=O)[C@H](CO)NC(=O)[C@@H](NC(=O)[C@](C)(Cc2ccccc2F)NC(=O)[C@@H](NC(=O)CNC(=O)[C@H](CCC(=O)O)NC(=O)C(C)(C)NC(=O)[C@@H](N)Cc2ccc(O)cc2)[C@@H](C)O)[C@@H](C)O)CCCC1)[C@@H](C)CC)[C@@H](C)CC)C(=O)N[C@@H](CCC(=O)O)C(=O)NCC(=O)NCC(=O)N[C@@H](CCCCNC(=O)COCCOCCNC(=O)COCCOCCNC(=O)CC[C@H](NC(=O)CCCCCCCCCCCCC(=O)O)C(=O)O)C(=O)N[C@@H](CO)C(=O)N[C@@H](CO)C(=O)NCC(=O)N[C@@H](C)C(=O)N1CCC[C@H]1C(=O)N1CCC[C@H]1C(=O)N1CCC[C@H]1C(=O)N[C@@H](CO)C(N)=O [Example 53]
- EC50 (hGCGR; 0.1% bovine casein and 1.0% human serum albumin, 37° C., geometric mean, read-out: hGCGR EC50, nM (SEM, n)): > 9950 nM
- EC50 (hGCGR; [1]): > 9950 nM
- Emax (hGLP-1R; HEK293, 0.1% bovine casein and 1.0% human serum albumin, percent of maximal response to GLP-1(7-36)NH2): 89.3 ± 6.12%
- Emax (hGLP-1R; HEK293, percent of maximal response to GLP-1(7-36)NH2, 0.1% bovine casein, arithmetic mean): 89.9 ± 9.41%
- EC50 (hGLP-1R; [2]): 0.18 nM

Structure (SMILES): CC[C@H](C)[C@H](NC(=O)[C@H](CCCN)NC(=O)[C@H](CC(=O)O)NC(=O)[C@H](CC(C)C)NC(=O)[C@](C)(CC(C)C)NC(=O)[C@@H](NC(=O)[C@H](CO)NC(=O)[C@H](CCCCNC(=O)COCCOCCNC(=O)COCCOCCNC(=O)CC[C@H](NC(=O)CCCCCCCCCCCCC(=O)O)C(=O)O)NC(=O)[C@H](CC(=O)O)NC(=O)[C@H](CO)NC(=O)[C@@H](NC(=O)[C@](C)(Cc1ccccc1F)NC(=O)[C@@H](NC(=O)CNC(=O)[C@H](CCC(=O)O)NC(=O)C(C)(C)NC(=O)[C@@H](N)Cc1ccc(O)cc1)[C@@H](C)O)[C@@H](C)O)[C@@H](C)CC)C(=O)N[C@@H](C)C(=O)N[C@@H](CCC(N)=O)C(=O)NC(C)(C)C(=O)N[C@@H](CCCCNC(=O)COCCOCCNC(=O)COCCOCCNC(=O)CC[C@H](NC(=O)CCCCCCCCCCCCC(=O)O)C(=O)O)C(=O)N[C@@H](Cc1ccccc1)C(=O)N[C@H](C(=O)N[C@H](CCC(=O)O)C(=O)N[C@@](C)(Cc1ccc(O)cc1)C(=O)N[C@@H](CC(C)C)C(=O)N[C@H](C(=O)N[C@@H](CCC(=O)O)C(=O)NCC(=O)NCC(=O)N1CCC[C@H]1C(=O)N[C@@H](CO)C(=O)N[C@@H](CO)C(=O)NCC(=O)N[C@@H](C)C(=O)N1CCC[C@H]1C(=O)N1CCC[C@H]1C(=O)N1CCC[C@H]1C(=O)N[C@@H](CO)C(N)=O)[C@@H](C)CC)[C@@H](C)CC [Example 105]
- EC50 (hGCGR; [1]): > 9950 nM
- EC50 (hGLP-1R; [2]): 0.52 nM

Structure (SMILES): CC[C@H](C)[C@H](NC(=O)[C@H](CC(C)C)NC(=O)[C@](C)(Cc1ccc(O)cc1)NC(=O)[C@H](CCCCNC(=O)COCCOCCNC(=O)COCCOCCNC(=O)CC[C@H](NC(=O)CCCCCCCCCCCCC(=O)O)C(=O)O)NC(=O)[C@@H](NC(=O)[C@](C)(Cc1ccccc1)NC(=O)[C@H](CCC(=O)O)NC(=O)C(C)(C)NC(=O)[C@H](CCC(N)=O)NC(=O)[C@H](C)NC(=O)[C@H](CCCCNC(=O)COCCOCCNC(=O)COCCOCCNC(=O)CC[C@H](NC(=O)CCCCCCCCCCCCC(=O)O)C(=O)O)NC(=O)[C@H](CCCN)NC(=O)[C@H](CC(=O)O)NC(=O)[C@H](CC(C)C)NC(=O)[C@](C)(CC(C)C)NC(=O)[C@@H](NC(=O)[C@H](CO)NC(=O)C1(NC(=O)[C@H](CC(=O)O)NC(=O)[C@H](CO)NC(=O)[C@@H](NC(=O)[C@](C)(Cc2ccccc2F)NC(=O)[C@@H](NC(=O)CNC(=O)[C@H](CCC(=O)O)NC(=O)C(C)(C)NC(=O)[C@@H](N)Cc2ccc(O)cc2)[C@@H](C)O)[C@@H](C)O)CCCC1)[C@@H](C)CC)[C@@H](C)CC)C(=O)N[C@@H](CCC(=O)O)C(=O)NCC(=O)NCC(=O)N1CCC[C@H]1C(=O)N[C@@H](CO)C(=O)N[C@@H](CO)C(=O)NCC(=O)N[C@@H](C)C(=O)N1CCC[C@H]1C(=O)N1CCC[C@H]1C(=O)N1CCC[C@H]1C(=O)N[C@@H](CO)C(N)=O [Example 120]
- EC50 (hGCGR; hGCGR EC50, nM (SEM, n), cAMP, incubated at 37° C., 0.1% bovine casein (no human serum albumin), geometric mean): > 9950 nM
- EC50 (hGLP-1R; hGLP-1R EC50, nM (SEM, n)): 1.43 nM

Structure (SMILES): CC[C@H](C)[C@H](NC(=O)[C@H](CC(C)C)NC(=O)[C@](C)(Cc1ccc(O)cc1)NC(=O)[C@@H](CCC(=O)O)NC(=O)[C@@H](NC(=O)[C@H](Cc1ccccc1)NC(=O)[C@H](CCC(=O)O)NC(=O)C(C)(C)NC(=O)[C@H](CCC(N)=O)NC(=O)[C@H](C)NC(=O)[C@H](CCCCNC(=O)COCCOCCNC(=O)COCCOCCNC(=O)CC[C@H](NC(=O)CCCCCCCCCOc1ccc(C(=O)O)cc1)C(=O)O)NC(=O)[C@H](CCCN)NC(=O)[C@H](CC(=O)O)NC(=O)[C@H](CC(C)C)NC(=O)[C@](C)(CC(C)C)NC(=O)[C@@H](NC(=O)[C@H](CO)NC(=O)[C@H](Cc1ccc2ccccc2c1)NC(=O)[C@H](CC(=O)O)NC(=O)[C@H](CO)NC(=O)[C@@H](NC(=O)[C@](C)(Cc1ccccc1F)NC(=O)[C@@H](NC(=O)CNC(=O)[C@H](CCC(=O)O)NC(=O)C(C)(C)NC(=O)[C@@H](N)Cc1ccc(O)cc1)[C@@H](C)O)[C@@H](C)O)[C@@H](C)CC)[C@@H](C)CC)C(=O)N[C@@H](CCCCNC(=O)COCCOCCNC(=O)COCCOCCNC(=O)CC[C@H](NC(=O)CCCCCCCCCOc1ccc(C(=O)O)cc1)C(=O)O)C(=O)NCC(=O)NCC(=O)N1CCC[C@H]1C(=O)N[C@@H](CO)C(=O)N[C@@H](CO)C(=O)NCC(=O)N[C@@H](C)C(=O)N1CCC[C@H]1C(=O)N1CCC[C@H]1C(=O)N1CCC[C@H]1C(=O)N[C@@H](CO)C(N)=O [Example 282]
- EC50 (hGCGR; hGCGR EC50, nM (SEM, n), 0.1% bovine casein and 1.0% human serum albumin, 37° C., geometric mean): > 9950 nM
- EC50 (hGCGR; [3]): > 9950 nM
- Emax (hGIPR; HEK293, read-out: hGIPR Emax, % ± SEM, 0.1% bovine casein and 1.0% human serum albumin, 37° C.): 84.4%
- EC50 (hGIPR; 0.1% bovine casein and 1.0% human serum albumin): 1.44 nM
- EC50 (hGIPR; cAMP, 0.1% bovine casein (no human serum albumin)): 0.0193 nM

Structure (SMILES): CCCC[C@H](NC(=O)[C@H](CC(=O)O)NC(=O)[C@H](CO)NC(=O)[C@@H](NC(=O)[C@](C)(Cc1ccccc1F)NC(=O)[C@@H](NC(=O)CNC(=O)[C@H](CCC(=O)O)NC(=O)C(C)(C)NC(=O)[C@@H](N)Cc1ccc(O)cc1)[C@@H](C)O)[C@@H](C)O)C(=O)N[C@@H](CO)C(=O)N[C@H](C(=O)N[C@@](C)(CC(C)C)C(=O)N[C@@H](CC(C)C)C(=O)N[C@@H](CC(=O)O)C(=O)N[C@@H](CCCN)C(=O)N[C@@H](CCCCNC(=O)COCCOCCNC(=O)COCCOCCNC(=O)CC[C@H](NC(=O)CCCCCCCCCOc1ccc(C(=O)O)cc1)C(=O)O)C(=O)N[C@@H](C)C(=O)N[C@@H](CCC(N)=O)C(=O)NC(C)(C)C(=O)N[C@@H](CCC(=O)O)C(=O)N[C@@H](Cc1ccccc1)C(=O)N[C@H](C(=O)N[C@H](CCC(=O)O)C(=O)N[C@@](C)(Cc1ccc(O)cc1)C(=O)N[C@@H](CC(C)C)C(=O)N[C@H](C(=O)N[C@@H](CCCCNC(=O)COCCOCCNC(=O)COCCOCCNC(=O)CC[C@H](NC(=O)CCCCCCCCCOc1ccc(C(=O)O)cc1)C(=O)O)C(=O)NCC(=O)NCC(=O)N1CCC[C@H]1C(=O)N[C@@H](CO)C(=O)N[C@@H](CO)C(=O)NCC(=O)N[C@@H](C)C(=O)N1CCC[C@H]1C(=O)N1CCC[C@H]1C(=O)N1CCC[C@H]1C(=O)N[C@@H](CO)C(N)=O)[C@@H](C)CC)[C@@H](C)CC)[C@@H](C)CC [Example 328]
- EC50 (hGCGR; [3]): > 9950 nM
- EC50 (hGCGR; hGCGR EC50, nM (SEM, n), cAMP, 37° C., 0.1% bovine casein and 1.0% human serum albumin, geometric mean (SEM, n)): > 9950 nM
- Emax (hGIPR; HEK293, read-out: hGIPR Emax, % ± SEM, cAMP, 37° C., 0.1% bovine casein and 1.0% human serum albumin): 85.5%
